In US7728038B2, “Methods for chelation therapy” (priority 2004, dated 2010):
Marks after values point to notes of the source that are not given here.

Tests used:
[1] = target: T1, horse spleen ferritin (Equus caballus, UniProt P02791+Q8MIP0); test: Removal of iron from ferritin by incubation with chelators; type: biochemical; conditions: Tris buffer 25 mM, pH 7.5, 37° C., chelator 0.47 mM, DFO 0.19 mM, up to 72 h
T1 construct: incubation of horse spleen ferritin with chelators 1a and 1b; from tissue; host or cells: horse spleen
Experimental: These chelators reacted with iron (III) forming purple complexes (UV: λmax=456 nm (ε4.6×10^3) for 1a; λmax=459 nm (λ4.45×10^3) for 1b) which have the chelator iron stoichiometry of 3:1. […] The chelators can also react with Al and Zn forming white powder complexes, and with Cu forming a green colored complex. These complexes were very soluble in water. […] The removal of iron from ferritin was determined by incubation of horse spleen ferritin with chelators 1a and 1b in Tris buffer (25 mM, pH 7.5, 37° C.) at a concentration of 0.47 mM, using DFO (0.19 mM) as a reference chelator similar to that described by Kontoghiorghes. The concentrations of the iron complex were measured spectrophotometrically from λmax values. The kinetics of iron release were investigated for a of period up to 72 h.

[2] = tested on: ovariectomized (Ovx) rat; test: EPR free iron (BC) and LLOFR (NC) of humeral bone, OVX rats treated with estradiol; type: in vivo; conditions: 17b-estradiol 10 μg/kg IP three times a week, 60 days post-surgery
Experimental: EPR-osseous tissue sample preparation and measurement: Samples of human femoral cortical bone preserved in 70% alcohol were initially crushed into large pieces (<1 mm) using a mortar and pestle. The granules were defatted with 10 changes of acetone and dried at 60° C. The samples then were further crushed and sieved to obtain a 250-600 micrometer fraction. The EPR measurement of approximately 100 mg of sample were made at 24° C. with values for g-factors of 2.00503±0.00019 (NC) and 2.00541±0.00085 (BC) and with widths of 0.916±0.0465 mT (NC) and 2.5 mT (BC) following a modification of known protocols.^74-75 A Bruker 300E spectrometer at 9.7 GHz was used for date collection.
Humeral bones from four groups of 3 or 4 rats (Sprague-Dawley, Charley River) each were evaluated. The baseline group consisting of 3 normal rats were sacrificed at six months of age using Ketamine-Xylazine anesthesia. The other three groups (4 rats each) were sham ovariectomized (SHAM) (one group) or ovariectomized (OVX) (two groups) at the same age. Bilateral ovariectomy was performed using a dorsal approach under aseptic conditions with Ketamine-Xylazine anesthesia.^76 One group of OVX animals was treated by estradiol IP injection with 10 μg/kg body weight of 17b-estradiol in benzyl alcohol/corn oil solution (5:95, vol/vol). The injections were three times a week. […]

[3] = tested on: ovariectomized (Ovx) rat; test: Whole body BMD by dual x-ray absorptiometry, OVX rats treated with GL22; type: in vivo
Experimental: (§1) In another experiment, four groups of 3 or 4 rats (Sprague-Dawley, Charley River) each were used. The baseline group consisted of 3 normal rats, which were sacrificed at six months of age. The humeral bones were collected for EPR free iron and LLOFR measurements and the whole body bone mineral density (BMD) was assessed by Dual x-ray absorptiometry (Hologic QDR1000 Plus) before necropsy. The other three groups were sham ovariectomized (one group) or ovariectomized (two groups) at the same age. The operation (a dorsal approach of bilateral ovariectomy) was under aseptic conditions with Ketamine-Xylazine anesthesia. One group of OVX animals was treated by chelation therapy with 30 μmol/kg body weight of GL22 in saline solution (pH 7.5). The GL22 was orally administered by intubation with a blunt-ended stainless steel needle three times a week. The other two groups received the saline solution without chelator by the same manner. All groups were sacrificed at 60 days post-surgery to collect humeral bones for EPR free iron and LLOFR measurements. Before the termination, whole body BMD was measured.

[4] = tested on: ovariectomized (Ovx) rat; test: Micro-CT morphometry of lumbar vertebra cancellous bone in chelator-treated Ovx rats; type: in vivo
Experimental: (§2) Animal and treatment: Three-month-old female Sprague-Dawley rats (Charles River Laboratory) were obtained and housed with a 12 h light-dark cycle at constant room temperature (24° C.) and humidity. The rats were fed standard rat chow (#8640 Harland Teklad, Madison, Wis.) and water ad libitum. When aged 6 month, the rats were divided into four groups. One group was sacrificed as baseline controls at the beginning of the experiment. The remaining groups were sham operated (one group) or bilaterally ovariectomized (two groups) via a dorsal approach. Chelation treatment started from the second day after surgery and was given three times a week for 9 weeks. The chelator (1-N-Docosyltriethylenetetraminepentaacetic acid, GL22) was dissolved in saline (pH 7.5) and was administrated by oral gavage (100 μmole/kg), while control groups including the sham and Ovx operated animals received vehicle only in the same manner.
(§3) Tissue preparation and analyses: Humeral bone was fixed in 70% ethanol for measurement of tissue iron by EPR. Lumbar vertebrae were first fixed in 10% phosphate buffered formalin for 24 hours, then dehydrated in ascending concentrations of ethanol and embedded in methyl methacrylate. The blocks were trimmed for peripheral computed tomography (pQCT), micro-computed tomography (μ-CT) and later prepared for histomorphometric studies.
μ-CT measurement: Lumbar vertebra were scanned in all three dimensions with a high-resolution μ-CT (10 μm) (Scanco μCT-40, Scanco Medical, Bassersdorf, Switzerland). The complete third vertebral bodies were scanned with 600 slices, each containing 2048×2048 pixels. The trabecular and cortical part of the bodies were separated with semi-automatically drawn contours. The resulting grey-sclae images were segmented using a low-pass filter to remove noice and a fixed threshold to extract the mineralized bone phase. From the binary images, structural indices were assessed with three-dimensional techniques without model-assumptions of the appearance of trabecular bone and were calculated by measuring three-dimensional distances directly in the travecular network and taking the mean over all voxels. The region of interest was travecular bone in the lumbar vertebral body, excluding the prmary songiosa area, 0.5 mm from the growth plate.

[5] = tested on: iron overload rats; test: Iron excretion in feces of iron overload rats treated by GL22 (GFAA); type: in vivo, rat; conditions: 30 μmol GL22 in low iron diet each day for 14 days
Experimental: 12 Male Sprague-Dawley rats from Simonsen Laboratories (Gilroy, Calif.) at about 80 days of age were given an intravenous injection of 241-Am-citrate in a total volume of 0.2 mL. For chelator treatment, the GL22 was dissolved in saline and the pH was adjusted to 7.5 with NaOH. Fourteen days after administration of 241-Am-citrate, a chelator food ration was started at 50 μmol/rat/day for 90 days orally, while the same food ration without chelator was given to controls. 50 μmol of chelator was added to the daily food ration (25 g). The total body retention of 241-Am was measured using a whole body-counter and after necropsy the skeletal tissues were counted for 241-Am content. The experimental protocol was described in an earlier publication. […] The same results have also been found for 239-Pu. Moreover, the excretion of iron from iron overloaded male rats that were treated by chelator was tested. […] Then, a low iron diet (Teklab diet #80396) was given to the rats for 2 weeks as the baseline iron excretion reached plateau levels, which was determined by GFAA measurement of iron in feces. […] The ashed feces were dissolved in 4 mL of 3 N HCl and quantitatively transferred to a volumetric flask. […] The concentration of iron was determined by GFAA spectrophotometry (Perkin Elmer). […]

[6] = tested on: ovariectomized (Ovx) rat; test: Free iron contents in humeral cortical bone of Ovx rats by EPR after oral chelation treatment; type: in vivo; conditions: chelator 100 μmole/kg oral gavage three times a week for 9 weeks, FIG. 1
Experimental: as §2, with “manner. […]” for “manner.”
Iron measurement: Total iron contents of femoral cortical bones of aged women were assessed using ICP-OES performed by Galbraith Laboratories, Inc. (Knoxville, Tenn.). […] Each sample of about 100 mg was mixed with acid solution, microwave digested and measured. […]

[7] = 241-Am retention in whole body and skeletal tissue of rats after GL22 treatment; type: in vivo; conditions: GL22 50 μmol/rat/day in food for 90 days
Experimental: 12 Male Sprague-Dawley rats from Simonsen Laboratories (Gilroy, Calif.) at about 80 days of age were given an intravenous injection of 241-Am-citrate in a total volume of 0.2 mL. For chelator treatment, the GL22 was dissolved in saline and the pH was adjusted to 7.5 with NaOH. Fourteen days after administration of 241-Am-citrate, a chelator food ration was started at 50 μmol/rat/day for 90 days orally, while the same food ration without chelator was given to controls. 50 μmol of chelator was added to the daily food ration (25 g). The total body retention of 241-Am was measured using a whole body-counter and after necropsy the skeletal tissues were counted for 241-Am content. The experimental protocol was described in an earlier publication. […] The same results have also been found for 239-Pu. Moreover, the excretion of iron from iron overloaded male rats that were treated by chelator was tested. The same rats as above at the age of 180 days were given 10 mg of iron as iron-dextran (Sigma, St. Louis, Mo.) subcutaneously every 3 days for 6 weeks to induce iron overloading. Then, a low iron diet (Teklab diet #80396) was given to the rats for 2 weeks as the baseline iron excretion reached plateau levels, which was determined by GFAA measurement of iron in feces. The chelator treated rats were given 20 g of low iron diet with 30 μmol of GL22 and control rats were given just 20 g of low iron diet each day for 14 days. Feces were collected every day for determination of iron excretion. The samples of feces were placed in glazed porcelain crucibles, dried at 100° C. overnight and ashed in a muffle furnace at 550° C. for 18 h. The ashed feces were dissolved in 4 mL of 3 N HCl and quantitatively transferred to a volumetric flask. The crucibles were then rinsed twice with 5 ml of 0.36 N HCl. The concentration of iron was determined by GFAA spectrophotometry (Perkin Elmer). After 14 days of chelation treatment by oral administration there were significant increases in the amounts of iron found in the feces when compared with controls (Table 7).

[8] = tested on: ovariectomized (Ovx) rat; test: pQCT densitometry of lumbar vertebra BMD in chelator-treated Ovx rats; type: in vivo
Experimental: as §2, §3
pQCT densitometry: The L3 vertebra bodies were examined by pQCT densitometry (Norland Stratec XCT 960A, Birkenfeld, Germany) to determine bone mineral density (BMD) for the part from the middle point to the caudal end, excluding the primary spongiosa. A scout scan of the vertebra was performed, and on the scout view, a reference line was manually placed such that the cross-sectional slice passed through at a distance of 1, 2, 3 and 4 mm from caudal end of lumbar vertebra body. The voxel size was 196 μm. Contour mode 2, Peel mode 20, Cortical mode 2 and threshold 570 for cortical bone was chosen for the analysis. The mean BMD for all of the measured slices was then calculated.

[9] = tested on: ovariectomized (Ovx) rat; test: EPR free iron (BC) and LLOFR (NC) of humeral bone, OVX rats treated with GL22; type: in vivo; conditions: GL22 30 μmol/kg orally three times a week, 60 days post-surgery
Experimental: as §1

[10] = tested on: heavy metal overload animals; conditions: in vivo; cited from earlier work
[11] = n-octanol/Tri-HCl buffer system; cited from earlier work
[12] = chelator-treated Ovx rats, μ-CT
[13] = Ovx rats treated with chelator, lumbar vertebra, pQCT

T1 sequence (P02791 2-175 limits assumed): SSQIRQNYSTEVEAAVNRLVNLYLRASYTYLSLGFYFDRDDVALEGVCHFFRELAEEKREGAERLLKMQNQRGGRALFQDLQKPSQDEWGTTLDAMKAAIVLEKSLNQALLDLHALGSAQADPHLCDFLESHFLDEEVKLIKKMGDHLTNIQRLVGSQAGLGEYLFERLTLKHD
T1 sequence (Q8MIP0 whole entry): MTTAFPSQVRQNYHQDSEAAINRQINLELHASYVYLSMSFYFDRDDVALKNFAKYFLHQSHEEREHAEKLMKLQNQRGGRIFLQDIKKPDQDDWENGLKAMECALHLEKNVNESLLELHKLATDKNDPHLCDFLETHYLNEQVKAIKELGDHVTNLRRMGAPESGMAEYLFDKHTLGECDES

With `Cc1c(O)c(=O)ccn1COCCO` [1a] the “removing iron from ferritin, compared with DFO” value [1] was “more effective than DFO”.

In the case of `CCc1c(O)c(=O)ccn1COCCO` [1b], the “removing iron from ferritin, compared with DFO” value [1] is reported as “more effective than DFO”.

For `C[C@]12CC[C@@H]3c4ccc(O)cc4CC[C@H]3[C@@H]1CC[C@@H]2O` [Estrogen, 17b-estradiol], the “BC (free iron) of EPR signal of humeral bone” value [2] was 214.3 ± 11.1^b a.u./mg and the “NC (LLOFR) of EPR signal of humeral bone” value [2] was 1357.5 ± 101.4^b a.u./mg.

For `CCCCCCCCCCCCCCCCCCCCCCN(CCN(CCN(CCN(CC(=O)O)CC(=O)O)CC(=O)O)CC(=O)O)CC(=O)O` [GL22, 1-N-Docosyltriethylenetetraminepentaacetic acid], the “whole body BMD” value ([3]; OVX rats, GL22 30 μmol/kg orally three times a week, 60 days post-surgery) was 0.188 ± 0.004^b g/cm2, the “removal of Ca from bone” value ([3]; judged from BMD of chelator-treated OVX rats versus SHAM rats (Table 5)) was “not found to remove Ca from bone” and the “BV/TV compared with sham control” value ([4]; Ovx rats treated with chelator) was 85.2%. The “Tr. Sp. increase compared with sham control” value ([4]; Ovx rats treated with chelator) was 8%, the “bone volume to tissue volume (BV/TV), higher than untreated Ovx rats” value [4, 12] was 9.1% and the “trabecular separation (Tr. Sp.), less than OVX controls” value [4, 12] was 10.2%. For the same compound, the “Excreted Fe from feces” value [5] was 1084.62 ± 88.54, the “iron content in bone, percent of that of Ovx rats without chelation treatment” value [6] was 59.8% and the “iron content in bone, percent of that of sham controls” value [6] was 73.0%. For the same compound, the “241-Am retention, Femur” value [7] was 4.06 ± 0.08%, the “241-Am retention, Humerus” value [7] was 3.97 ± 0.09% and the “241-Am retention, Vertebral body” value [7] was 4.05 ± 0.23%. The “241-Am retention, Whole body” value ([7]; started 14 days after 241-Am-citrate iv) was 50.8 ± 0.7%, the “Trabecula BMD of spine bone versus Ovx group” value ([8]; FIG. 2A, ANOVA p<0.01, 6 rats per group) was “significantly higher” and the “Total BMD of spine bone versus Ovx group” value ([8]; FIG. 2B, ANOVA p<0.05, 6 rats per group) was “significantly higher”. The “trabecular BMD compared with sham control” value ([8]; Ovx rats treated with chelator) was 91.8%, the “trabecular BMD of the spine, higher than Ovx rats” value [8, 13] was 20% and the “trabecular BMD of the spine, less than sham control” value [8, 13] was 8.2%. For the same compound, the “BC (free iron) in bone” value [9] was 202.7 ± 32.9^b a.u./mg, the “NC (LLOFR) in bone” value [9] was 1083 ± 127^b a.u./mg and the “toxicity in treated heavy metal overload animals” value [10] was “without any indications of toxicity”.

For `Cc1c(O)c(=O)ccn1C` [L1, 1,2-dimethyl-3-hydroxyl-4-pyridinone], the “distribution coefficient (DC)” value [11] is listed as 0.24.
